The text below walks through data of patent US20170240592A1, “GADD45BETA/MKK7 INHIBITOR FOR THE TREATMENT OF A RESISTANT HAEMATOLOGICAL MALIGNANCY” (IMPERIAL INNOVATIONS LIMITED, priority 2014, published 2017).

For data set [1] the following is noted: mouse, in vivo, iv, 10 mg/kg.
Method: (§1) In vitro pharmacokinetic assays were performed according to established, in-house protocols and included: plasma stability (human), thermodynamic solubility (PBS pH 7.4, at 37° C. for 14 days), microsomal stability (human), plasma protein binding (PPB; mouse and human), and distribution coefficient (Log D). In vivo pharmacokinetic analyses were also performed at Cyprotex according to established, in-house protocols. Briefly, the peptides were dissolved in PBS and administered by single intravenous injection to CD1 male mice at the dose of 10 mg/kg (25-30 g of total body weight; n=3 mice per time point per compound). Blood samples were collected in heparinized tubes at up to 7 time points after this injection (i.e. 0.08, 0.25, 0.5, 1, 2, 4 and 8 hr), and the plasma concentrations of the test peptide were determined at each time point by LC-MS/MS, using a five-point standard curve covering a peptide concentration range from 3 to 3,000 ng/mL. Standard curves were prepared using blank plasma matrices and treated in the same manner as the test samples. […] Values were calculated from the data of the peptide plasma concentration versus time curves using a non-compartmental model analysis, as described elsewhere (Groulx, 2006; Landaw and Di Stefano 3rd, 1982). The doses of z-DTP2 and DTP3 predicted to achieve the therapeutic plasma concentration of 1 μM at the steady state were calculated from the measured pharmacokinetic values using the following equation: k0=k1×Vd×Cp (where Vd is expressed in L/kg; Cp is the plasma concentration at the steady state expressed in mg/L; k0 is the zero order input expressed in mg/kg/hr; k1 is the first order elimination constant [0.693/t1/2]).
Data set [2] relates to KMS-12 cells. In words: [3H]thymidine incorporation assay, DTP3 and bortezomib as single agents or in combination, KMS-12.
Method: (§2) Treatments with DTP3 were for 6 days; bortezomib was added to the cell cultures 48 hr prior to the measurement of cell viability. For the combination treatment, DTP3 was used at the concentrations of 3 nM in U266 cells and of 10 nM in KMS-12 cells, whereas bortezomib was used at increasing concentrations, as shown.
Viability data from the experiment shown in FIG. 12 were converted into values representing the fraction of cells affected (FA) equaling 0.5 in the drug-treated cultures compared with untreated cultures, and the interaction of DTP3 with bortezomib was analysed according to the Chou-Talalay method (Chou, 2006). Also shown are the drug concentrations giving the FA value of 0.5 and the description of the CI. Based on the Chou-Talalay equation (Chou, 2006), synergy is present when the CI is less than 1.0 (where values between 0.3 and 0.7 denote synergism, and values between 0.1 and 0.3 denote strong synergism); the combination is additive when CI equals 1.0, and antagonistic when it is more than 1.0 (Chou, 2006).
(§3) [^3H]Thymidine incorporation assays were performed using standard protocols (Griffiths and Sundaram, 2011). […] At 24, 72 or 144 hr, cells were incubated for an additional 16 hr with 0.037 MBq/well of [^3H]thymidine (Amersham), and then harvested onto glass fibre filter mats using a 96-well plate automated Tomtec cell harvester (Receptor Technologies) and analysed by liquid scintillation spectroscopy with a LKB Wallac Trilux Microbeta 3 b-counter (PerkinElmer). Values were expressed as the percentage of the counts per minute (cpm) measured in the treated cultures relative to the cpm measured in the respective untreated cultures. […]
The activities of DTP3 and bortezomib in the U266 and KMS-12 myeloma cell lines, both as single agents and in combination, were determined using [^3H]thymidine incorporation assays, performed as described above in “Cell Proliferation, Cell Death, and Apoptosis Assays”. The IC50 values of bortezomib as single agent were determined at 48 hr using 9 concentrations of drug, ranging from 0.1 to 1,000 nM.
Data set [3] concerns U266 cells. In words: [3H]thymidine incorporation assay, DTP3 and bortezomib as single agents or in combination, U266. As to conditions: FA 0.5; DTP3 3 nM for 6 days, bortezomib last 48 hr; Chou-Talalay.
Method: as §2
Viability data from the experiment shown in FIG. 12 were converted into values representing the fraction of cells affected (FA) equaling 0.5 in the drug-treated cultures compared with untreated cultures, and the interaction of DTP3 with bortezomib was analysed according to the Chou-Talalay method (Chou, 2006). Also shown are the drug concentrations giving the FA value of 0.5 and the description of the CI. […]
as §3
Data set [4] in a line: tolerability in mice. The data set is classed as in vivo. The text has this: Values denote means±SD (n=3) or SEM (n=5), as indicated. MW, molecular weight.
Data set [5] can be described thus: plasma stability (human). The data set is classed as in vitro ADME.
Method: In vitro pharmacokinetic assays were performed according to established, in-house protocols and included: plasma stability (human), thermodynamic solubility (PBS pH 7.4, at 37° C. for 14 days), microsomal stability (human), plasma protein binding (PPB; mouse and human), and distribution coefficient (Log D). In vivo pharmacokinetic analyses were also performed at Cyprotex according to established, in-house protocols. Briefly, the peptides were dissolved in PBS and administered by single intravenous injection to CD1 male mice at the dose of 10 mg/kg (25-30 g of total body weight; n=3 mice per time point per compound). Blood samples were collected in heparinized tubes at up to 7 time points after this injection (i.e. 0.08, 0.25, 0.5, 1, 2, 4 and 8 hr), and the plasma concentrations of the test peptide were determined at each time point by LC-MS/MS, using a five-point standard curve covering a peptide concentration range from 3 to 3,000 ng/mL. Standard curves were prepared using blank plasma matrices and treated in the same manner as the test samples. […] Values were calculated from the data of the peptide plasma concentration versus time curves using a non-compartmental model analysis, as described elsewhere (Groulx, 2006; Landaw and Di Stefano 3rd, 1982). […]
A short description of data set [6]: in vivo pharmacokinetic analyses after single intravenous injection. As to conditions: calculated from measured PK values, k0=k1×Vd×Cp.
Method: as §1
Data set [7] deals with T1, Gadd45β/MKK7 complex (Homo sapiens, UniProt O14733).
T1 construct: expressed in transfected cells; host or cells: human HEK-293T
T1 sequence (O14733 1-419): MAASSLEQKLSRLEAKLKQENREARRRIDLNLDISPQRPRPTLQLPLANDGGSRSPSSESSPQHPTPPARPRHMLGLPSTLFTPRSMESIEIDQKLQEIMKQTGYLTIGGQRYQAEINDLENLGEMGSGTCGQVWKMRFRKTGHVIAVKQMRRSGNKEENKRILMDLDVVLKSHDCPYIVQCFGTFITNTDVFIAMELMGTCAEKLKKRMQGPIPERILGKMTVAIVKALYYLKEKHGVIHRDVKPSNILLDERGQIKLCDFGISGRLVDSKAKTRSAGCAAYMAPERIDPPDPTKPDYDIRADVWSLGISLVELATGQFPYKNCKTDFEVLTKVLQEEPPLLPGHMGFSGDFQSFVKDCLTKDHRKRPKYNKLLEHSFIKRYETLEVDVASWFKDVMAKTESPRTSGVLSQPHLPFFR
Nature of the data set: co-immunoprecipitation assay. The data set is classed as binding. As to conditions: anti-FLAG immunoprecipitates, HEK-293T lysates. As for the experimental part: Values express the percentage of live cells present in the treated cultures relative to the live cells present in the respective untreated cultures and denote means±SD ([WM]; n=3). UT, untreated. […] Values express the percentage of inhibition of Gadd45β binding to MKK7 relative to the binding measured in the absence of peptide. […] Co-immunoprecipitations (IP) were performed using an anti-FLAG antibody (a-FLAG); western blots (WB) were developed using an anti-HA or an anti-MKK7 antibody, as shown.
Co-immunoprecipitation assays were performed as described previously (Papa et al., 2004). Briefly, human HEK-293T cells were seeded at a density of 1.8-2.2×10^6 cells/dish in […] tissue-culture dishes and then transfected with pcDNA-FLAG-hMKK7 and pcDNA-HA-hGADD45β by using the calcium phosphate precipitation method (Papa et al., 2004). 48 hr after transfection, cells were washed with PBS and then lysed in lysis buffer supplemented with protease inhibitors (1 mM phenylmethylsulfonylfluoride, 10 μM chymostatin, 2 μg/mL aprotinin, 2 μg/mL leupeptin; Roche) for 30 min in ice. Cell lysates were cleared by centrifugation at 45,000×g for 40 min and then used for co-immunoprecipitations with anti-FLAG M2 Affinity Gel (Sigma-Aldrich), binding to FLAG-tagged MKK7. Western blots were developed using an anti-HA (binding to HA-hGADD45β) or an anti-MKK7 antibody. […]

Each structure is given as a SMILES string.

As to `CC(=O)N[C@H](Cc1ccc(O)cc1)C(=O)N[C@H](CCCNC(=N)N)C(=O)N[C@H](Cc1ccccc1)C(N)=O` [DTP3, Acetyl-Tyr-Arg-Phe-NH2], in data set [1], the “plasma clearance (CL) compared with z-DTP2” value is given as “significantly lower”, the “terminal half-life (t1/2) compared with z-DTP2” value was “somewhat shorter” and the “volume of distribution (Vd) compared with z-DTP2” value is listed as “much lower”. Besides, the “combination index (CI) with bortezomib” value in data set [2] (FA 0.5, DTP3 10 nM for 6 days, bortezomib last 48 hr, Chou-Talalay) came out at 0.56. Further, the “description of the CI” value in data set [2] (combination with bortezomib) is “synergism (values between 0.3 and 0.7 denote synergism)”. Also, in data set [3], the “combination index (CI) with bortezomib” value is 0.21. For the same molecule, in data set [4] (mice, single i.v. injection, s.c. injection or per os), the “tolerability after single administration” value is reported as “excellent tolerability”. Moreover, the in-vivo tolerability entry in data set [4] (mouse, in vivo) is recorded as “excellent in-vivo tolerability”. Further, the “tolerability after prolonged administration” value in data set [4] (osmotic pumps, 28 days, 14.5 mg/kg/day) was “excellent tolerability and lack of any apparent side effects”. Moreover, the “stability in human serum” value in data set [5] is reported as “very high stability”. Also, the “predicted dose required to achieve the therapeutic plasma concentration of 1 μM at the steady state (k0)” value in data set [6] is 0.81 mg/kg/h. Moreover, in data set [7], the “disruption of the Gadd45β/MKK7 complex” value is “disruption of the Gadd45β/MKK7 complex”.
